# From patent US7989495B2, “Compositions and methods for inhibiting NF-κB mediated tumorigenicity and adhesion dependent survival of cancer cells” (University of Utah Research Foundation, priority 2002, dated 2011)
# What was measured:
# Format in all cases: cell-based
# HT-29 cells = test: One-hour cell adhesion assay (crystal violet); conditions: HT-29 pretreated three days (3 hours elsewhere in the source) with various concentrations
# Procedure: The data points represent the average percent of annexin V-positive, propidium iodide-negative cells (of the total cells counted) from triplicate experiments. The error bars represent the standard error of the means. […] The results shown are a graphic representation of individual flow cytometry results expressed as the percentage of cells that were annexin V-positive of those that excluded propidium iodide. […] An immunoblot of the lysates for cleaved PARP was performed. Each lane represents equal total protein concentrations. […] The cells were allowed to adhere to plastic dishes for 1 hour after which they were washed gently in PBS and stained with crystal violet. The crystal violet stained cells were solubilized in deoxycholate and the absorbance detected in a spectrophotometer at 590 nm. The adherent cells were expressed as a fraction of the controls Each data point represents the average of triplicate experiments and the error bars the standard errors of the means.
# Even though BAY 11-7085 induced a loss of cell adhesion, it was important to show whether HT-29 cells were actually susceptible to anoikis.
# TRAF-2 = test: Immunoblot of anti-apoptotic proteins in HT-29 cells; conditions: 20 μM, 8 hours
# Procedure: (§1) The data points represent the means of triplicate experiments and the error bars the standard errors of the means. […] The percent of apoptotic cells was then determined by the annexin V assay. […] The results shown are typical of two separate experiments. […] Immunoblots were performed for c-IAP-2, TRAF-1, TRAF-2, and FLIP. All lanes contain equal total protein.
# (§2) The cells were washed twice in ice cold PBS and then lysed in 4° C. lysis buffer (50 mM HEPES, 150 mM NaCl, 1.5 mM MgCl2, 1 mM EGTA, 100 mM NaF, 10 mM Na2PO4, 1 mM Na3VO4, 10% glycerol, 1% Triton X-100, and 1 μg/ml each of aprotinin, leupeptin, chymostatin, pepstatin) and clarified at 12,000 rpm at 4° C. for 15 minutes. The lysates were normalized for total protein concentration. Aliquots of the lysates were then mixed 1:1 in sample buffer (125 mM Tris-HCl (pH 6.8), 20% glycerol. 4% sodium dodecyl sulfate, 2% beta-mercaptoethanol, 10 μg/ml bromophenol blue) and boiled for 3 minutes. The samples were loaded onto SDS-PAGE gels (7.5 or 10% acrylamide). The proteins were transferred to nitrocellulose from the gels, then incubated in blocking buffer (1% bovine serum albumin (Bio-Rad), 100 mM Tris-Cl (pH7.4), 0.9% NaCl, 0.1% Nonidet) overnight at 4° C.
# (§3) For immunodetection, the blocked blots were probed with primary antibody for 2 hours at 4° C. on a rocker. The blots were washed twice for 10 minutes each in blocking buffer, then incubated with a 1:2000 dilution of a rabbit-anti-mouse secondary antibody (for monoclonal primary antibodies; for polyclonal antibodies, this step was skipped). After two washes in blocking buffer (150 mM NaCl, 20 mM Tris pH 7.4, 0.5% Tween 20, 5% bovine serum albumin, and 0.2 gm/500 ml final concentration of sodium azide), the blots were finally incubated with a 1:2000 dilution of alkaline phosphatase-conjugated rabbit-anti-mouse antibodies (Jackson) in blocking buffer. Alkaline phosphatase was detected by a colorimetric reaction using a BCIP (5-Bromo-4-Chloro-3-Indolyl phosphate)/NBT (Nitroblue tetrazolium) kit (Zymed).
# TRAF-1 = test: as above; conditions: 20 μM, 8 hours
# Procedure: as §1, §2, §3
# [1] = test system: FLIP (54 kilodalton long isoform); test: as above; conditions: adherent HT-29; 20 μM
# Procedure: as §1, §2, §3
# c-IAP-1 = test: as above; conditions: transiently suspended or adherent HT-29; 20 μM; 8 hours
# Procedure: as §1, §2, §3
# [2] = test system: DLD-1 cells expressing IκB super-repressor; test: Readhesion survival of cells transduced with adenovirus IκB super-repressor (crystal violet); conditions: subapoptotic concentrations, readhesion 8 h
# Procedure: (§4) The percentage of apoptotic cells was determined using the annexin V assay. The data points represent the averages of three experiments; bars, ±SE. E. DLD-1 and F. HT-29 cells were transduced with an adenovirus containing the IκB super-repressor construct. After 3 days, the cells were transiently suspended and allowed to readhere in the presence of subapoptotic concentrations of BAY 11-7085 or DMSO (vehicle) for 8 h. The data are expressed as fractions of cells surviving compared with the controls (no adenovirus) and were quantitatively determined by staining the remaining adherent cells with crystal violet.
# (§5) DLD-1 and HT-29 cells that were approximately 60-70% confluent were transduced with Ad-IκB super-repressor by adding 1-50 μl of purified virus to the cells. […] In a parallel experiment, the transduced cells were resuspended and allowed to readhere in BAY 11-7085 for 8 h. The percentage of surviving (nonapoptotic) cells was determined using crystal violet staining.
# (§6) The specific involvement of NF-κB in the apoptotic mechanism of BAY 11-7085 was examined specifically. […] The transduced DLD-1 and HT-29 cells were then transiently suspended and allowed to readhere at concentrations of BAY 11-7085 below the in vitro apoptotic threshold (>20 μM) for these cell lines. […] Therefore, inhibition of NF-κB is important to the apoptotic effect of BAY 11-7085 during colon cancer cell readhesion.
# [3] = test system: HT-29 cells expressing IκB super-repressor; test: as above; conditions: subapoptotic concentrations, readhesion 8 h
# Procedure: as §4, §5, §6
smiles,measurement,setting,value
"CC(C)(C)c1ccc(S(=O)(=O)/C=C/C#N)cc1 [BAY 11-7085, (2E)-3-[4-(tertiarybutylphenyl)sulfonyl]-2-propenenitrile]",inhibition of cell adhesion,HT-29 cells,significant and rapid inhibition of cell adhesion at high concentrations
same,TRAF-2 protein expression,TRAF-2,decrease in the protein expression
same,TRAF-1 protein expression,TRAF-1,decrease in the protein expression
same,expression of the 54 kilodalton (long) isoform of FLIP,[1],only a slight diminution
same,c-IAP-1 protein expression,c-IAP-1,No decrease in c-IAP-1 protein expression
same,apoptotic threshold with IκB super-repressor expression compared with controls,[2],significantly lowered the apoptotic threshold
same,apoptotic threshold with IκB super-repressor expression compared with controls,[3],significantly lowered the apoptotic threshold
